Assays:
human NOX4 = target: T1, human NOX4 (Homo sapiens, UniProt Q9NPH5); test: Amplex Red activity assay (cellular H2O2 formation in hNOX4 T-REx-293 cells); type: cell-based; details: tet-induced 24 h, extracellular H2O2 by Amplex Red, 60 min 25° C., geometric mean if determined several times
T1 construct: The full-length human NOX4 (NM_016931.3) transcript was cloned; expressed in transfected cells
T1 sequence (Q9NPH5 1-578): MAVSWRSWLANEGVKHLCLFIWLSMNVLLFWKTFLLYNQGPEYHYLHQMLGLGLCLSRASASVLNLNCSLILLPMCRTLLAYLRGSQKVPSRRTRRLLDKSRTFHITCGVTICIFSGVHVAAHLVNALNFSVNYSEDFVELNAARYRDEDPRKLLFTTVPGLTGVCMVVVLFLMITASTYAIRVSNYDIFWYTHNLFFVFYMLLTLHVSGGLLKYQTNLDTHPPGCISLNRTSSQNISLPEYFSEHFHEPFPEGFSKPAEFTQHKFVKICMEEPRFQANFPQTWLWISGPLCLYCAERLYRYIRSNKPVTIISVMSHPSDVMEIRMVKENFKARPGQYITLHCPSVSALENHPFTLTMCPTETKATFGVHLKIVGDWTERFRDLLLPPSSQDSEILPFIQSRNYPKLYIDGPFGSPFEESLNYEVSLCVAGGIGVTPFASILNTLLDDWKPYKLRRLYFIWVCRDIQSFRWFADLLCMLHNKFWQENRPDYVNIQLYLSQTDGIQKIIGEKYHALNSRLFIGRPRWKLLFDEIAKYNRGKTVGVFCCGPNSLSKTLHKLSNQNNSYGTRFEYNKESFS
T1 sequence (P13498 1-195 partner): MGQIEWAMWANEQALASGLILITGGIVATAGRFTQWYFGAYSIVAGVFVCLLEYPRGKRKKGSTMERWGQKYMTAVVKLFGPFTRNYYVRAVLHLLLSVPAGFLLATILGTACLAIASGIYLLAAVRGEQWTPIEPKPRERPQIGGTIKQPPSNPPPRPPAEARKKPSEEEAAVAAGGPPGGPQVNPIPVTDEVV
Method in brief: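 Tet-induced (1 μg/mL, 24 h) HEK293 T-REx cells stably expressing full-length human NOX4, 20 000 cells/well, exposed to compounds (10 concentrations, 50 μM to 100 nM; 1.25% DMSO) for 60 min at 25°C. Extracellular H2O2 detected by Amplex Red resorufin fluorescence (ex 550/em 600 nm) versus vehicle; IC50 calculated.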

[1] = target: horseradish peroxidase / H2O2 (Armoracia rusticana, UniProt P00433); test: Amplex Red counter screen assay (cells replaced by H2O2); type: biochemical; details: counter screen: H2O2-generating cells replaced by 1562.5 nM H2O2 in 1×PBS; read-out: IC50 Control
Protocol: In order to identify compounds that interfere with the activity assay either by inhibiting the activity of horseradish peroxidase or by directly interacting with the formed H2O2 a counter screen assay was established. This control assay is almost identical to the described Amplex Red activity assay with the only difference that the H2O2— generating cells are replaced by 1562.5 nM H2O2 in 1×PBS.

Chain of horseradish peroxidase / H2O2 (P00433 31-338): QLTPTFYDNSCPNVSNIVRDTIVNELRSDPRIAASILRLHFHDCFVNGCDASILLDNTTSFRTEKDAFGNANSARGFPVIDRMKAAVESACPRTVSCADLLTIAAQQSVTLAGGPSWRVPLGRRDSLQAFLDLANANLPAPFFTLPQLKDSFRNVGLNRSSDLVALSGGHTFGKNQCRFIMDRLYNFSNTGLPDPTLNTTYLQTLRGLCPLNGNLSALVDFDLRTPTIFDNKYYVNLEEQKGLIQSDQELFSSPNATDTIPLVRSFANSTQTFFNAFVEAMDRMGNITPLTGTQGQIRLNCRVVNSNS

Substance	IC50 (human NOX4) [nM]	IC50 [1] [µM]
2,3-Dihydro-benzofuran-5-carboxylic acid (2-dimethylamino-benzothiazol-5-yl)-amide [Example 86]	2680	> 50
2,3-Dihydro-benzofuran-5-carboxylic acid [2-(1-oxa-7-aza-spiro[3.5]non-7-yl)-benzooxazol-5-yl]-amide [Example 28]	695	> 50
